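Step 1: Grow cells in 96-well plates. Step 2: Expose to compound for 48 hours at 5 concentrations. Step 3: Interpolate endpoints linearly; if unreached, use highest concentration. GI50 = concentration required for 50% inhibition of growth.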 Active and inactive are the calls of the source. No stated cut-off is given here; in the data, active = GI50 up to about 1.1 µM and inactive = higher.
Tests used:
Test in all cases: NCI-60 cell line screen, 48 h
[1] = test system: HOP-92
[2] = test system: KM12
[3] = test system: NCI-H460
[4] = test system: K562
[5] = test system: OVCAR-8
[6] = test system: SR
[7] = test system: SNB-19
[8] = test system: MCF7
[9] = test system: SK-OV-3
[10] = test system: A498
[11] = test system: RPMI-8226
[12] = test system: OVCAR-5
[13] = test system: SF-539
[14] = test system: SNB-75
[15] = test system: MOLT-4
[16] = test system: COLO 205
[17] = test system: MDA-MB-231
[18] = test system: MDA-MB-435
[19] = test system: UACC-257
[20] = test system: SF-295

Measured: GI50

CC1C2=C(O)CC(C)(C)CC2=NC2=C1C(=O)CC(C)(C)C2 (configuration not stated)
inactive: [1] > 100 µM | [2] > 100 µM | [3] > 100 µM | [4] 91.8 µM | [5] > 100 µM | [6] > 100 µM | [7] > 100 µM | [8] > 100 µM | [9] > 100 µM | [10] > 100 µM | [11] > 100 µM | [12] > 100 µM | [13] > 100 µM | [14] 83 µM | [15] > 100 µM

O=C(Nc1ccc(N2C(=O)CSC2c2ccccc2O)cc1)c1ccc(N2C(=O)CSC2c2ccccc2O)cc1 (configuration not stated)
inactive: [1] 26.7 µM | [2] > 100 µM | [3] 83.8 µM | [4] > 100 µM | [16] > 100 µM | [5] 51.3 µM | [7] 31.4 µM | [8] 46.3 µM | [9] 23 µM | [11] 57.9 µM | [17] 44 µM | [12] 83.6 µM | [18] 61 µM | [19] > 100 µM | [20] 34.4 µM | [13] 69.7 µM | [14] 27.7 µM | [15] > 100 µM

O=[N+]([O-])c1ccc(Cl)c2c([N+](=O)[O-])cccc12
inactive: [1] 3.96 µM | [2] 3.2 µM | [4] 4.02 µM | [16] 4.57 µM | [5] 3.5 µM | [6] 3.95 µM | [7] 8.51 µM | [8] 4.43 µM | [9] 2.28 µM | [11] 5.52 µM | [18] 3.1 µM | [20] > 10 µM | [13] 3.06 µM | [14] 5.38 µM | [15] 4.9 µM

CC(C)(C)OC(=O)CN1CCNCCN(CC(=O)OC(C)(C)C)CC1
inactive: [1] > 100 µM | [2] > 100 µM | [3] > 100 µM | [4] 54.5 µM | [16] > 100 µM | [5] > 100 µM | [6] > 100 µM | [7] > 100 µM | [8] > 100 µM | [9] > 100 µM | [10] > 100 µM | [11] > 100 µM | [17] > 100 µM | [12] > 100 µM | [19] > 100 µM | [20] > 100 µM | [13] > 100 µM | [14] 12.8 µM | [15] > 100 µM

CCSC12OC3(CCCCCN3C1=O)C1C(=O)N(c3ccccc3)C(=O)C12 (configuration not stated)
inactive: [1] > 100 µM | [2] > 100 µM | [3] > 100 µM | [4] > 100 µM | [16] > 100 µM | [5] > 100 µM | [6] > 100 µM | [7] > 100 µM | [9] > 100 µM | [10] > 100 µM | [17] > 100 µM | [12] > 100 µM | [18] > 100 µM | [19] > 100 µM | [20] > 100 µM | [13] > 100 µM | [14] > 100 µM | [15] > 100 µM

COc1ccc2nccc(SCC(=O)O)c2c1
inactive: [1] > 100 µM | [2] > 100 µM | [3] > 100 µM | [4] > 100 µM | [5] > 100 µM | [6] > 100 µM | [7] > 100 µM | [10] > 100 µM | [11] > 100 µM | [17] > 100 µM | [12] > 100 µM | [18] > 100 µM | [19] > 100 µM | [20] > 100 µM | [15] > 100 µM

CN1N=C(c2ccncc2)OC1c1ccccc1F (configuration not stated)
inactive: [1] > 100 µM | [2] > 100 µM | [3] > 100 µM | [4] > 100 µM | [16] > 100 µM | [5] > 100 µM | [7] > 100 µM | [9] > 100 µM | [10] > 100 µM | [11] > 100 µM | [17] > 100 µM | [12] > 100 µM | [18] > 100 µM | [20] > 100 µM | [13] > 100 µM | [15] > 100 µM

CCN(CC)C(=S)SNCc1ccc(S(N)(=O)=O)cc1
inactive: [1] 22.5 µM | [2] 14.9 µM | [3] 1.34 µM | [4] > 100 µM | [16] 14.6 µM | [5] 14.4 µM | [6] 1.28 µM | [7] 16 µM | [9] 40.1 µM | [10] > 57.1 µM | [11] 2.93 µM | [17] 18.1 µM | [12] 14 µM | [18] 19.5 µM | [19] 17.1 µM | [20] 9.06 µM | [13] 14.5 µM | [14] 18.5 µM | [15] 8.97 µM

NC(=S)NS(=O)(=O)c1ccc(F)cc1
inactive: [1] > 100 µM | [2] > 100 µM | [3] > 100 µM | [4] > 100 µM | [16] > 100 µM | [5] > 100 µM | [7] > 100 µM | [9] > 100 µM | [11] > 100 µM | [17] > 100 µM | [12] > 100 µM | [18] > 100 µM | [19] > 100 µM | [20] > 100 µM | [13] > 100 µM | [14] > 100 µM | [15] > 100 µM
